Reference: US20250145628A1, “PYRAZOLOPYRIMIDINES, COMPOSITIONS COMPRISING THEM AND USES THEREOF” (Novo Nordisk A/S, priority 2022, published 2025)
pIC50: −log10 of the molar value.

Legend:
human CB1 receptor [1] = target: T1, human CB1 receptor (Homo sapiens, UniProt P21554); experiment: bioSensAll GAPL-Gi2 BRET biosensor assay (antagonism of CP-55,940); assay type: cell-based; details: HEK293 cells transfected with hCB1 and GAPL-Gi2 biosensor, EC75 of CP-55,940 (0.1 nM), overnight incubation, read-out: CB1 wt Gi2 IC50
T1 construct: expressed in transfected cells; host or cells: HEK293
Method: (§1) Using polyethylenimine (PEI) transfection agent, HEK293 cells were transfected in suspension with the human CB1 or CB1b receptor and one of the following bioSensAll® assays: GAPL-Gi2, or β-arrestin plasma membrane (PM) translocation biosensor (+GRK2). Cells were directly seeded in 96-well plates immediately following transfection.
(§2) Cells were incubated with coelenterazine (luciferase substrate) and different test compounds prior to the measurement of BRET signals.
i) GAPL sensors are used to monitor the activation of heterotrimeric G proteins at the plasma membrane upon receptor stimulation. Specifically, these multimolecular BRET sensors detect the plasma membrane recruitment of proteins that interact with active Ga subunits in a G protein family-selective manner. G protein activation following receptor stimulation generally leads to an increase in the BRET signal.
(§3) HEK293 cells were maintained in Dulbecco's Modified Eagle Medium (DMEM) (Wisent; cat #319-030-CL: without sodium pyruvate, with 4.5 g/L glucose, without L-glutamine) supplemented with 1% penicillin-streptomycin (Wisent; cat #450-201-EL) and 2 or 10% fetal bovine serum (Wisent cat #090150).
(§4) HEK293 cells were co-transfected with hCB1 or hCB1b and one of the above-listed bioSensAll® assays. For each transfection condition: • the total amount of transfected DNA was kept constant at 1 μg per mL of cell culture to be transfected; whenever necessary, salmon sperm DNA (Invitrogen, cat #15632011) was used as ‘carrier’ DNA to supplement plasmid DNA (i.e., biosensor and receptor); • the PEI (polyethylenimine 25 kDa linear, PolyScience, cat #23966) to DNA ratio (ug:ug) was fixed at 3:1.
(§5) Transfections were carried out as follows: • DNA and PEI were first diluted separately in 150 mM NaCl. The volume of the diluent in each tube corresponds to 5% of the cell culture volume to be transfected. • Once DNA and PEI were diluted, the PEI-containing solution was added to the DNA solution and the DNA/PEI mixture immediately vortexed for 5 seconds. • The DNA/PEI mixture was incubated for at least 20 minutes at room temperature to allow for the formation of DNA/PEI complexes. • During the incubation, HEK293 cells were detached, counted and re-suspended in culture medium (composition specified above). • At the end of the incubation period, the DNA/PEI mixture was added to the cells. • Cells were finally distributed in 96-well plates (White Opaque 96-well/Microplates, Greiner, cat #655083 or CulturPlate-96, White Opaque 96-well Microplate, PerkinElmer, cat #6005688) at a density of 30 000 cells per well.
(§6) At ˜48 hours post-transfection: • Using 450-Select TS Biotek plate washer, culture medium was aspirated and replaced with 100 μl of Hank's Balanced Salt Solution buffer (HBSS) (Wisent, cat #319-067CL: without red phenol; with sodium bicarbonate, with calcium and magnesium, with HEPES) per well. This process was performed a total of two times (i.e., 2 washes). • After the washing step, the HP D300 digital dispenser (Tecan) was used to inject increasing doses (12) of test compounds (ranging from 0-600 nM) to wells. Three to five minutes later, an EC75 of CP-55,940 (0.1 nM for GAPL-Gi2 assay; 100 nM for β-arrestin PM translocation biosensor (+GRK2)) was added to columns 2-12 of each 96-well plate.
(§7) BRET signals were determined by calculating the ratio of light emitted by GFP-acceptor (515 nm) over light emitted by luciferase-donor (400 nm). All BRET ratios were standardized using the equation below with pre-established BRET values for positive and negative controls. The standardized BRET ratio is referred to as universal BRET (uBRET).
(§8) Resulting dose-response curves were fitted using the four-parameter logistic non-linear regression model in GraphPad Prism 9.

human CB1 receptor [2] = target: T1, human CB1 receptor; experiment: bioSensAll β-arrestin plasma membrane translocation BRET biosensor (+GRK2) assay (antagonism of CP-55,940); assay type: cell-based; details: HEK293 cells transfected with hCB1 and β-arrestin PM translocation biosensor (+GRK2), EC75 of CP-55,940 (100 nM), overnight incubation, read-out: CB1 wt βarr2 IC50
Method: as §1, §2
ii) The multimolecular β-arrestin membrane recruitment biosensors allow for real-time spatio-temporal monitoring of β-arrestin 1 and β-arrestin 2 following GPCR activation. Specifically, these β-arrestin sensors were designed to detect the recruitment of proteins to the plasma membrane (β-arrestin PM) with localization to compartment resulting in an increased BRET signal.
as §3, §4, §5, §6, §7, §8

T1 sequence (P21554 whole entry): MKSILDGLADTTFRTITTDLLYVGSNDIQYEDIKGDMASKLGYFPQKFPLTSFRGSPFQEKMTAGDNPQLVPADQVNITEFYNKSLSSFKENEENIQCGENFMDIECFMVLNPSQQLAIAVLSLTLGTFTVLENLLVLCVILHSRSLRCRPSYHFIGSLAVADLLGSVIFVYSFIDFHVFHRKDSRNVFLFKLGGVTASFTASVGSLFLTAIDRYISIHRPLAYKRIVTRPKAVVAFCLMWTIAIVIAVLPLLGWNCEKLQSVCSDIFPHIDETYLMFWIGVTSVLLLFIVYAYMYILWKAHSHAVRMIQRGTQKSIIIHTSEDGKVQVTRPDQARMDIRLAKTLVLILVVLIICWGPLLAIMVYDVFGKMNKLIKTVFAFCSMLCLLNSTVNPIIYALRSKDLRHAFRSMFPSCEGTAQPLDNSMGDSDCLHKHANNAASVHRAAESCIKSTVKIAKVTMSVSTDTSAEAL

pIC50 (human CB1 receptor [1]) | pIC50 (human CB1 receptor [2]) | Compound
7.88 | 7.69 | CNC(=O)[C@H]1CCN1c1cc(N2CCC(C)(C(N)=O)CC2)n2nc(-c3ccccc3Cl)c(-c3ccc(Cl)cc3)c2n1 [Compound 65, 1-[2-(2-chlorophenyl)-3-(4-chlorophenyl)-5-[(2R)-2-(methylcarbamoyl)azetidin-1-yl]pyrazolo[1,5-a]pyrimidin-7-yl]-4-methyl-piperidine-4-carboxamide]
8.40 | 8.06 | CC(C)(O)COc1cc(-c2ccc(C(F)(F)F)nc2)n2nc(-c3ccccc3Cl)c(-c3ccc(Cl)cc3)c2n1 [Compound 45, 1-[2-(2-chlorophenyl)-3-(4-chlorophenyl)-7-[6-(trifluoromethyl)-3-pyridyl]pyrazolo[1,5-a]pyrimidin-5-yl]oxy-2-methyl-propan-2-ol]
8.97 | 8.91 | CC(C)(O)COc1cc(N2CCN(S(=O)(=O)C(F)(F)F)CC2)n2nc(-c3ccc(C#N)nc3)c(-c3ccc(Cl)cc3)c2n1 [Compound 53, 5-[3-(4-chlorophenyl)-5-(2-hydroxy-2-methyl-propoxy)-7-[4-(trifluoromethylsulfonyl)piperazin-1-yl]pyrazolo[1,5-a]pyrimidin-2-yl]pyridine-2-carbonitrile]
8.42 | 7.52 | CCNC(=O)CN(C)c1cc(N2CCC(C)(C(N)=O)CC2)n2nc(-c3ccccc3Cl)c(-c3ccc(Cl)cc3)c2n1 [Compound 46, 1-[2-(2-chlorophenyl)-3-(4-chlorophenyl)-5-[[2-(ethylamino)-2-oxo-ethyl]-methyl-amino]pyrazolo[1,5-a]pyrimidin-7-yl]-4-methyl-piperidine-4-carboxamide]
5.12 | < 4.52 | CN(CC1COC(C)(C)OC1)c1cc(N2CCC(C)(C(N)=O)CC2)n2nc(-c3ccccc3Cl)c(-c3ccc(Cl)cc3)c2n1 [Compound 62, 1-[2-(2-chlorophenyl)-3-(4-chlorophenyl)-5-[(2,2-dimethyl-1,3-dioxan-5-yl)methyl-methyl-amino]pyrazolo[1,5-a]pyrimidin-7-yl]-4-methyl-piperidine-4-carboxamide]
8.14 | 7.33 | CN(CCOCCO)c1cc(N2CCC(C)(C(N)=O)CC2)n2nc(-c3ccccc3Cl)c(-c3ccc(Cl)cc3)c2n1 [Compound 66, 1-[2-(2-chlorophenyl)-3-(4-chlorophenyl)-5-[2-(2-hydroxyethoxy)ethyl-methyl-amino]pyrazolo[1,5-a]pyrimidin-7-yl]-4-methyl-piperidine-4-carboxamide]
8.83 | 8.59 | COC1(C)CN(c2cc(OCC(C)(C)O)nc3c(-c4ccc(Cl)cc4)c(-c4ccc(C#N)nc4)nn23)C1 [Compound 52, 5-[3-(4-chlorophenyl)-5-(2-hydroxy-2-methyl-propoxy)-7-(3-methoxy-3-methyl-azetidin-1-yl)pyrazolo[1,5-a]pyrimidin-2-yl]pyridine-2-carbonitrile]
9.05 | 8.79 | CC(C)OC1(C(N)=O)CCN(c2cc(OCC(C)(C)O)nc3c(-c4ccc(Cl)cc4)c(-c4ccc(C#N)nc4)nn23)CC1 [Compound 63]
8.77 | 8.08 | C[C@H](O)COc1cc(-c2ccc(C(F)(F)F)nc2)n2nc(-c3ccccc3Cl)c(-c3ccc(Cl)cc3)c2n1 [Compound 70(S)]
6.94 | 6.38 | CCNC(=O)CN(C)c1cc(N2CC(CC(N)=O)C2)n2nc(-c3ccccc3Cl)c(-c3ccc(Cl)cc3)c2n1 [Compound 31, 2-[1-[2-(2-chlorophenyl)-3-(4-chlorophenyl)-5-[[2-(ethylamino)-2-oxo-ethyl]-methyl-amino]pyrazolo[1,5-a]pyrimidin-7-yl]azetidin-3-yl]acetamide]
< 5.00 | 6.94 | CN(CP(C)(C)=O)c1cc(N2CC(CC(N)=O)C2)n2nc(-c3ccccc3Cl)c(-c3ccc(Cl)cc3)c2n1 [Compound 33, 2-[1-[2-(2-chlorophenyl)-3-(4-chlorophenyl)-5-[dimethylphosphorylmethyl(methyl)amino]pyrazolo[1,5-a]pyrimidin-7-yl]azetidin-3-yl]acetamide]

More lines, now with the values behind:

Compound | pIC50 (human CB1 receptor [1]) | pIC50 (human CB1 receptor [2])
CCNC(=O)CN(C)c1cc(N2CCC(C)(C(N)=O)CC2)n2nc(-c3ccccc3Cl)c(-c3ccc(Cl)cc3)c2n1 [Compound 26, 1-[2-(2-chlorophenyl)-3-(4-chlorophenyl)-5-[[2-(ethylamino)-2-oxo-ethyl]-methyl-amino]pyrazolo[1,5-a]pyrimidin-7-yl]-4-methyl-piperidine-4-carboxamide] | 8.30 | 7.52
CC1(C(N)=O)CCN(c2cc(N3CCC[C@H]3CO)nc3c(-c4ccc(Cl)cc4)c(-c4ccccc4Cl)nn23)CC1 [Compound 9, 1-[2-(2-chlorophenyl)-3-(4-chlorophenyl)-5-[(2S)-2-(hydroxymethyl)pyrrolidin-1-yl]pyrazolo[1,5-a]pyrimidin-7-yl]-4-methyl-piperidine-4-carboxamide] | 9.45 | 8.74
COc1ccccc1-c1nn2c(-c3cccc(C#N)c3)cc(N3CCC[C@H]3CO)nc2c1-c1ccc(Cl)cc1 [Compound 3, 3-[3-(4-chlorophenyl)-5-[(2S)-2-(hydroxymethyl)pyrrolidin-1-yl]-2-(2-methoxyphenyl)pyrazolo[1,5-a]pyrimidin-7-yl]benzonitrile] | 8.75 | 8.00
COc1ccccc1-c1nn2c(-c3ccc(C(F)(F)F)cc3)cc(N3CCC[C@H]3CO)nc2c1-c1ccc(Cl)cc1 [Compound 6, [(2S)-1-[3-(4-chlorophenyl)-2-(2-methoxyphenyl)-7-[4-(trifluoromethyl)phenyl]pyrazolo[1,5-a]pyrimidin-5-yl]-pyrrolidin-2-yl]methanol] | 7.85 | 6.84
CC(C)Oc1cc(N(C)CCO)nc2c(-c3ccc(Cl)cc3)c(-c3ccccc3Cl)nn12 [Compound 12, 2-[[2-(2-chlorophenyl)-3-(4-chlorophenyl)-7-isopropoxy-pyrazolo[1,5-a]pyrimidin-5-yl]-methyl-amino]ethanol] | 8.77 | 7.77
CC(C)(O)COc1cc(N2CCN(S(C)(=O)=O)CC2)n2nc(-c3ccccc3Cl)c(-c3ccc(Cl)cc3)c2n1 [Compound 16, 1-[2-(2-chlorophenyl)-3-(4-chlorophenyl)-7-(4-methylsulfonylpiperazin-1-yl)pyrazolo[1,5-a]pyrimidin-5-yl]oxy-2-methyl-propan-2-ol] | 8.23 | 7.88
CC1(C(N)=O)CCN(c2cc(N3CC[C@@H]3CC(=O)O)nc3c(-c4ccc(Cl)cc4)c(-c4ccccc4Cl)nn23)CC1 [Compound 19, 2-[(2R)-1-[7-(4-carbamoyl-4-methyl-1-piperidyl)-2-(2-chlorophenyl)-3-(4-chlorophenyl)pyrazolo[1,5-a]pyrimidin-5-yl]azetidin-2-yl]acetic acid] | 5.83 | < 5.00
O=S(=O)(N1CCN(c2cc(N3CCC[C@H]3CO)nc3c(-c4ccc(Cl)cc4)c(-c4ccccc4Cl)nn23)CC1)C(F)(F)F [Compound 7, [(2S)-1-[2-(2-chlorophenyl)-3-(4-chlorophenyl)-7-[4-(trifluoromethylsulfonyl)piperazin-1-yl]pyrazolo[1,5-a]pyrimidin-5-yl]pyrrolidin-2-yl]methanol] | 8.81 | 8.48
